Results as given in patent US9815883B2, “Inhibiting peptides derived from TREM-like transcript 1 (TLT-1) and uses thereof” (Institut National de la Sante et de la Recherche Medicale …, priority 2010, dated 2017).

Experiments:
[1] = tested on: male Balb/c mice; experiment: Caecal ligation and puncture (CLP) polymicrobial sepsis model; assay type: in vivo, mouse; details: heading only; evaluation without results
Method: Adult male Balb/c mice (20-23 g) were subjected to caecal ligation and puncture under isoflurane anaesthesia and were randomly grouped (n=5-10 per group) to receive a single LR17 (100 μg in 0.2 mL NaCl 0.9%), scrambled-LR17 ([…] in 0.2 mL NaCl 0.9%), or 0.2 mL NaCl 0.9% i.p. injection. After 24 hours, animals were killed under anaesthesia. Results are mean±SD. p values are *p<0.05, **p<0.01, ***p<0.001 compared with control animals.
(A-B) Adult male Balb/c mice (20-23 g) were subjected to caecal ligation and puncture under isoflurane anaesthesia and were randomly grouped (n=25-40 per group) to receive a LR17, scrambled-LR17, or 0.2 mL NaCl 0.9% i.p. injection at indicated times. Survival was monitored over 1 wk and analyzed by Log Rank test.
Male Balb/c mice (4-6 weeks) were anesthetized with isoflurane. The cecum was exposed through a 1.0 cm abdominal midline incision and subjected to a ligation of the distal half followed by one puncture with a G21 needle. A small amount of stool was expelled from the puncture to ensure patency. The cecum was replaced into the peritoneal cavity and the abdominal incision closed in two layers. After surgery, all mice were injected s.c. with 0.5 mL of 0.9% NaCl solution for fluid resuscitation. The animals were randomly grouped and treated LR17 or LR17-scrambled as control in 250 μL 0.9% NaCl solution and administered i.p. In order to determine the effect of various doses of LR17 at different times, mice were treated with 50, 100 or 200 μg of LR17 at H1 after surgery, or with 3 injections of 100 μg at 2, 6 and 24 hours or with 100 μg in one injection at 24 hours after CLP and then monitored for survival. Five additional animals per group were killed under anaesthesia at 24 h after CLP for the determination of bacterial count and cytokines levels. Peritoneal lavage fluid was obtained using 2 mL RPMI 1640 (EuroBio), and blood was collected by cardiac puncture. Concentrations of plasma cytokines were determined by ELISA (R&Dsystems). For the assessment of bacterial counts, blood and crushed spleen were plated in serial log dilutions on tryptic soy supplemented with 5% sheep blood agar plates. After plating, tryptic soy agar plates were incubated at 37° C. aerobically for 24 h and anaerobically for 48 h. Results are expressed as CFU per ml of blood or per gram of spleen.

[2] = tested on: TREM-1 ligand (agonist); experiment: Immunoblot revealed by mouse anti-TREM-1 mAb (TREM-1 agonist); assay type: binding; details: FIG. 1A
Description: To determine whether sTLT-1 may specifically bind to the TREM-1 ligand and thus interfere with the TREM-1/TREM-1 ligand interaction, we used a specific TREM-1 agonist known to bind and activate TREM-1, mimicking TREM-1 engagement by its ligand.

[3] = tested on: male Balb/c mice; experiment: Caecal ligation and puncture (CLP) polymicrobial sepsis model; assay type: in vivo, mouse; details: LR12 in septic mice
[4] = tested on: human neutrophils; experiment: Neutrophil phagocytosis and oxidative burst (Phagotest, Bursttest); assay type: cell-based
Method: Data (mean±SD) are representative of 6 different experiments.
The quantitative determination of neutrophil phagocytosis and oxidative burst was performed by flow cytometry using the Phagotest and the Bursttest (Orpegen Pharma, Heidelberg, Germany) following the manufacturers' recommendations. A FITC-labelled opsonized E. coli was used to determine the general phagocytic activity (ingestion of one or more bacteria per cell) and the individual cellular phagocytic activity (number of bacteria per cell). For evaluation of oxidative burst activity, unlabeled opsonized E. coli, fMLP, PMA LPS and activated- or non-activated-platelets (30:1) were used as stimulants and DCFDA as a fluoregenic substrate (Invitrogen) accordingly with manufacturers' instructions.

[5] = tested on: TREM-1 ligand expressed on resting or thrombin-activated human platelets; experiment: Flow cytometry binding of FITC-labelled peptides to human platelets; details: competition with unlabelled substance
Method: (B) Flow cytometry analysis of FITC-labelled LR17 (1 or 5 μg/mL) binding to TREM-1 ligand expressed on resting or thrombin-activated (5 UI/mL) human platelets is reversed by co-incubation with unlabelled LR17, sTLT-1 or LP17, a TREM-1 derived peptide.
Acid Citrate Dextrose blood samples were centrifuged (100 g, 10 min) to obtain Platelet-Rich Plasma. PRP was then centrifuged (550 g, 10 min) over a 36% (wt/vol) BSA gradient and platelets collected from the interphase before being washed in Tyrode's salts buffer (Sigma-Aldrich) supplemented with 5 mM EGTA. For activation, platelets were incubated for 30 minutes with 5 U/mL thrombin (Sigma-Aldrich) or 1 μg/mL E. Coli LPS (0111:B4, Sigma-Aldrich) at 37° C. and subsequently fixed with 2% (wt/vol) paraphormaldehyde (PFA, Sigma-Aldrich). Residual PFA was removed by two additional washing steps in Tyrode buffer. Activation was assessed by anti-CD62P (Beckman Coulter).
Isolated cells (neutrophils, monocytes or platelets) were blocked for aspecific binding with 10% human Ig (Sigma-Aldrich) for 1 hour on ice. Cells were incubated with recombinant soluble FITC-labelled TLT-1-peptides, FITC-labelled LP17 (or corresponding FITC-labelled scrambled peptides), PE-labelled anti-TREM-1 mAb (R&Dsystems), CD62P-FITC, CD66b-PE, CD45-PE, CD14-FITC (all from Beckman Coulter)

With “EDAGEY (listed as Homo sapiens) [LR6-2, 6 amino-acids derived from LR17]” the “protection against polymicrobial sepsis” value [1] was “Protect Mice Against Polymicrobial Sepsis”.

In the case of “GAEREVCMDEYGALQDG (listed as Homo sapiens) [LR17-scrambled, control peptide, reference compound]”, the “binding to the TREM-1 ligand (TREM-1 agonist, anti-TREM-1 mAb)” value [2] is reported as “not”.

In the case of “GEYGCM (listed as Homo sapiens) [LR6-3, 6 amino-acids derived from LR17]”, the “protection against polymicrobial sepsis” value [1] is reported as “Protect Mice Against Polymicrobial Sepsis”.

For “LQEEDA (listed as Homo sapiens) [LR6-1, 6 amino-acids derived from LR17]”, the “protection against polymicrobial sepsis” value [1] was “Protect Mice Against Polymicrobial Sepsis”.

In the case of “LQEEDAGEYGCM (listed as Homo sapiens) [LR12, N-terminal 12 amino-acids from LR17]”, the “coagulation disorders (platelet count)” value ([3]; FIG. 7c) is reported as “significant protection”, the survival rate ([3]; FIG. 7g) is reported as “improved survival rate” and the “organ dysfunction (lung histopathology)” value ([3]; FIG. 7d) is reported as “significant protection”. The “systemic, broncho-alveolar and organ inflammation” value ([3]; FIGS. 7a and b) was “significant protection”.

B1: sTLT-1: soluble TLT-1 (TREM-like transcript 1), recombinant (protein)
chain: QGIVGSLPEVLQAPVGSSILVQCHYRLQDVKAQKVWCRFLPEGCQPLVSSAVDRRAPAGRRTFLTDLGGGLLQVEMVTLQEEDAGEYGCMVDGARGPQILHRVSLNILPPEEEEETHKIGSLAENAFSDPAGSANPLEPSQDEKSIP
With B1 the “neutrophils' phagocytic properties” value ([4]; E. coli) was “did not alter”, the “PMA- or fMLP-induced oxidative burst” value ([4]; not shown) was “no action” and the “effect of co-incubation on FITC-labelled LP17 binding to platelets” value [5] was “decreased”. For the same molecule, the “effect of co-incubation on FITC-labelled LR17 binding to platelets” value [5] was “reversed” and the “binding to the TREM-1 ligand (TREM-1 agonist, anti-TREM-1 mAb)” value [2] was “able to bind the TREM-1 ligand”.
